Data published in patent US20070270337A1, “Pharmaceutical Compositions for Preventing or Treating Th1-Mediated Immune Diseases” (Daiichi Asubio Pharma Co., Ltd., priority 2003, published 2007).

Assays:
dendritic cells = assay: Cytokine production from dendritic cells (ELISA); type: cell-based, human; settings: for IL-10 production from dendritic cells / IL-12 production from dendritic cells / TNFα production from dendritic cells: LPS (1 μg/mL) stimulated, 24 hours, ANP 10^-8 to 10^-6 M, CNP 10^-6 M
Method: (§1) For experiments, the leukocyte layer (buffy coats) of peripheral blood from healthy volunteers (provided by Kyoto Red Cross Blood Center, Japan) was used. After the peripheral blood monocyte fraction was separated by density gradient centrifugation using Ficoll-Paque, the fraction was applied to a magnetic bead column using MACS CD14 or cultured in cell culture flasks at 37° C. for 1 hour to select the adhered cells, thereby separating monocytes. Immature dendritic cells were obtained by culturing the monocytes (2×10^5 cells/ml) for 7 days at 37° C. in the presence of 10% fetal bovine serum, 50 ng/mL human GM-CSF and 20 ng/mL human IL-4.
Dendritic cells were incubated for 24 hours with LPS (1 μg/mL) in the presence or absence of ANP (10^−8 M to 10^−6 M) or CNP (10^−6 M), and the levels of IL-12, IL-10 and TNFα in each culture supernatant were measured by the ELISA method.

human monocytes = assay: cGMP producing activity in monocytes; type: cell-based; settings: 10^-12 to 10^-6 M, 15 minutes
Method: as §1
(§2) After the cells (1×10^5 cells/sample) were incubated in 500 μL of 10 mM HEPES, 0.5 mM 3-isobutyl-1-methylxanthine and 1 μM phospholamidon at 37° C. for 10 minutes, ANP or CNP was added to a final concentration of 10^−12 to 10^−6 M and incubation was continued for an additional 15 minutes. After the cells were washed and lysed, the intracellular cGMP concentration was measured by the ELISA method.

[1] = tested on: naive T cells co-cultured with dendritic cells; assay: Intracellular cytokine expression in naive T cells (dendritic cell-driven Th1/Th2 polarization, flow cytometry); type: cell-based, human; settings: dendritic cells pretreated with LPS (1 μg/mL) + ANP (10^-7 M) versus LPS alone; Sample #1 and #2
Method: as §1
Dendritic cells were activated by being pre-incubated for 24 hours with LPS (1 μg/mL) in the presence or absence of ANP (10^−7 M) and then irradiated (30 Gy) to eliminate their proliferation ability. These dendritic cells (1×10^5 cells/well) and naive T cells separated from cord blood (1×10^6 cells/well) were co-cultured for 6 days. After the T cells were grown in the presence of IL-2 (50 U/mL) for an additional 8 days, the T cells were collected and stimulated for 4 hours with 50 ng/mL phorbol ester (PMA) and 500 ng/mL ionomycin. Two hours before completion of the incubation, Brefeldin A (10 μg/mL) was added. […] IFN-γ positive cells were determined as Th1-type cells, while IL-4 positive cells were determined as Th2-type cells.

[2] = tested on: naive CD4+ T cells cultured with dendritic cells; assay: T cell proliferation induced by activated dendritic cells ([3H]-thymidine uptake); type: cell-based, human
Method: as §1
Naive T cells (naive CD4^+ T cells) were isolated from the monocyte fraction of umbilical cord blood using magnetic beads for MACS CD4^+ T cell isolation. Dendritic cells were activated by being cultured for 24 hours with lipopolysaccharide (LPS, 1 μg/mL) in the presence or absence of ANP (10^−7 M). The cells were washed and irradiated (30 Gy) to eliminate their proliferation ability, followed by culturing together with the naive T cells (1×10^5 cells/well) for 6 days. The T cells were evaluated for their proliferation ability by 8 hour uptake of [methyl-^3H]-thymidine (0.5 μCi/well).

immature dendritic cells = assay: cGMP producing activity in immature dendritic cells; type: cell-based, human; settings: 10^-12 to 10^-6 M, 15 minutes
Method: as §1, §2

Compound | IL-10 production from dendritic cells (dendritic cells) | IL-12 production from dendritic cells (dendritic cells) | TNFα production from dendritic cells (dendritic cells) | IL-12, TNF-α and IL-10 production from dendritic cells (dendritic cells; LPS-unstimulated dendritic cells, ANP alone) | intracellular cGMP levels (human monocytes) | IFN-γ-producing cells (Th1-type) [1] | IL-4-producing cells (Th2-type) [1] | T cell proliferation induced by LPS-treated dendritic cells ([2]; ANP (10^-7 M) added simultaneously with LPS (1 μg/mL)) | proliferation of naive T cells ([2]; dendritic cells treated with ANP (10^-7 M) alone, without LPS) | intracellular cGMP levels (immature dendritic cells)
CC[C@H](C)[C@@H]1NC(=O)[C@H](CCCNC(=N)N)NC(=O)[C@H](CC(=O)O)NC(=O)[C@H](CCSC)NC(=O)[C@H](CCCNC(=N)N)NC(=O)CNC(=O)CNC(=O)[C@H](Cc2ccccc2)NC(=O)[C@@H](NC(=O)[C@H](CO)NC(=O)[C@H](CO)NC(=O)[C@H](CCCNC(=N)N)NC(=O)[C@H](CCCNC(=N)N)NC(=O)[C@H](CC(C)C)NC(=O)[C@@H](N)CO)CSSC[C@@H](C(=O)N[C@@H](CC(N)=O)C(=O)N[C@@H](CO)C(=O)N[C@@H](Cc2ccccc2)C(=O)N[C@@H](CCCNC(=N)N)C(=O)N[C@@H](Cc2ccc(O)cc2)C(=O)O)NC(=O)CNC(=O)[C@H](CC(C)C)NC(=O)CNC(=O)[C@H](CO)NC(=O)[C@H](CCC(N)=O)NC(=O)[C@H](C)NC(=O)CNC1=O [ANP, atrial natriuretic peptide] | enhance IL-10 production | decrease both IL-12 and TNFα levels in a concentration-dependent manner | decrease both IL-12 and TNFα levels in a concentration-dependent manner | no effect on these cytokine productions | little increase in cGMP levels at all concentrations | decrease in IFN-γ-producing cells | increase in IL-4-producing cells | almost completely inhibited | no effect on proliferation of naive T cells | increase intracellular cGMP levels in dendritic cells in a concentration-dependent manner from a concentration as low as 10^−12 M
C-type natriuretic peptide [CNP, reference compound] | no effect on cytokine expression | no effect on cytokine expression | no effect on cytokine expression | – | no effect on intracellular cGMP levels | – | – | – | – | no effect on intracellular cGMP levels
